Assays:
[1] = in vivo; cited from earlier work
patients [2] = details: four HIV-positive patients; cited from earlier work
patients [3] = details: human, in vivo; cited from earlier work
mouse = details: in vivo; cited from earlier work
rats [4] = details: rat, in vivo; cited from earlier work
rats [5] = details: rat, in vivo; cited from earlier work; remark: listed apart in the source
rats [6] = details: rat, in vivo; cited from earlier work; remark: listed apart in the source
[7] = tested on: glomerular epithelial cell; details: rat, in vivo; cited from earlier work
human population = details: in vivo; cited from earlier work
rats [8] = details: rat, in vivo; cited from earlier work; remark: listed apart in the source
rats and mice = details: in vivo; cited from earlier work
patients [9] = details: 90 mg per month; cited from earlier work
rabbits [10] = details: rabbit, in vivo; cited from earlier work
rabbits [11] = details: rabbit, in vivo; cited from earlier work; remark: listed apart in the source
rat hepatocytes = details: cited from earlier work
[12] = Clinical pathology (clinical chemistry) of dosed rats; type: in vivo, male Sprague-Dawley rats; details: rats given the high dosage of diflunisal
Description: In both the ibuprofen and the diflunisal group, two patients complained of abdominal cramping.
1. Frequency—Prior to necropsy.
2. Number of animals—All surviving animals.
3. Bleeding Procedure—Blood was obtained by puncture of the orbital sinus while under 70% CO2/30% O2 anesthesia.
Collection of Blood Samples—Approximately 0.5 mL of blood was collected into EDTA tubes for evaluation of hematology parameters. Approximately 1 mL of blood was collected into serum separator tubes for clinical chemistry analysis. Approximately 200 uL of plasma was obtained and frozen at […] for test compound/metabolite estimation. An additional ˜2 mL of blood was collected into a 15 mL conical polypropylene vial to which ˜3 mL of Trizol was immediately added. The contents were immediately mixed with a vortex and by repeated inversion. The tubes were frozen in liquid nitrogen and stored at […]

[13] = tested on: mitochondrial respiration; details: cited from earlier work
renal cortex = details: cited from earlier work
proximal renal tubule = details: rat, in vivo; cited from earlier work
rats [14] = details: rat, in vivo; cited from earlier work; remark: listed apart in the source
rats [15] = details: rat, in vivo; cited from earlier work; remark: listed apart in the source
rabbits [16] = details: rabbit, in vivo; cited from earlier work; remark: listed apart in the source
mice = details: single dose; cited from earlier work
[17] = tested on: angiotensin converting enzyme (ACE); details: 20, 25, and 30 days post-treatment; cited from earlier work
rats [18] = details: rat, in vivo; cited from earlier work; remark: listed apart in the source

gentamicin
gamma-glutamyl transpeptidase activity in urine [1]: increase

Nc1ccc(S(=O)(=O)Nc2ncccn2)cc1 [sulfadiazine, Sulfadiazine]
patients who developed oliguria, abdominal pain, renal failure (patients [2]): All four

O=P1(NCCCl)OCCCN1CCCl (centres unmarked) [ifosfamide, Ifosfamide]
patients who developed nephrotoxicity (patients [3]): seven
clearance rate of creatinine (mouse): decreased
serum creatinine and urea levels (mouse): elevated
body weight and hematocrit versus control rats (rats [4]): significantly lower

CN(C)c1ncnc2c1ncn2[C@@H]1O[C@H](CO)[C@@H](N)[C@H]1O [PAN, Puromycin aminonucleoside]
urine protein and renal damage (rats [5]): proteinuria
serum albumin concentration (rats [6]): negatively affected
serum non-esterified fatty acids (rats [6]): increase
glomerular epithelial cell apoptosis [7]: induced

[Li] [lithium, Lithium]
patients who proceeded to end-stage renal disease (human population): seven
patients with nephrogenic diabetes insipidus (NDI) (human population): ~90%
patients with nephrotic proteinuria (human population): Approximately one fourth
urine output (rats [8]): marked polyuria

NCCC(O)(P(=O)(O)O)P(=O)(O)O [pamidronate, Pamidronate]
body weight (rats and mice): significant weight loss
creatinine clearance (rats and mice): decrease
renal toxicity at the recommended dose (patients [9]): rare

CC1=C2C(=CO[C@H](C)[C@H]2C)C(O)=C(C(=O)O)C1=O [citrinin, Citrinin]
renal ultrastructure (rabbits [10]): renal alterations
blood urea nitrogen and serum-creatinine levels (rabbits [11]): increased
clinical findings (rabbits [11]): azotaemia and metabolic acidosis
creatinine clearance (rabbits [11]): decreased

O=C(O)c1cc(-c2ccc(F)cc2F)ccc1O [diflunisal, Diflunisal]
LDH leakage (rat hepatocytes; 500 μM, compared to the control sample): increase
intracellular ATP concentrations (rat hepatocytes): decreased
concentrations of creatinine [12]: increased

O=C(Cc1cccs1)N[C@@H]1C(=O)N2C(C(=O)[O-])=C(C[n+]3ccccc3)CS[C@H]12 [cephaloridine, Cephaloridine]
mitochondrial respiration and uptake of anionic succinate [13]: reduce
glutathione reductase (renal cortex): inhibited
reduced glutathione (GSH) in the renal cortex (renal cortex): depleted

N.N.[Cl][Pt][Cl] [cisplatin, Cisplatin (Pt (NH3)2(Cl)2)]
renal injury (proximal renal tubule): induced renal injury
food intake (rats [14]): decreased
urine osmolality (rats [14]): decreased
urine volume (rats [14]): increase
serum creatinine levels (rats [15]): elevations

COc1cccc2c1C(=O)c1c(O)c3c(c(O)c1C2=O)C[C@@](O)(C(=O)CO)C[C@@H]3O[C@H]1C[C@H](N)[C@H](O)[C@H](C)O1 [adriamycin, Adriamycin]
nephrotoxicity (rabbits [16]): signs of nephrotoxicity at relatively low doses
renal signs (mice): combined glomerular albuminuria and immunoglublinuria
serum ACE levels [17]: significantly elevated

Carboplatin
renal damage compared with cisplatin (proximal renal tubule): less damage than cisplatin
renal injury (proximal renal tubule): induced renal injury
CGT excretion (rats [18]): increased approximately two-fold
